# In a melting point compilation (Tetko et al.):
row,Compound,melting point [°C]
1,CCOC(=O)c1n[nH]c(C(O)c2ccccc2)n1 (stereo unspecified),49 to 51
2,COc1ccc(-c2nnc(S)[nH]2)c(OC)c1,250 to 252
3,Cc1nnc2[nH]nc(N)c2c1C,264 to 266
4,C=CCc1cc([N+](=O)[O-])ccc1O,68 to 70
5,O=C(O)C1=NC=CN2CCS(=O)(=O)N=C12,183 to 187
6,CNS(=O)(=O)c1ccc(-c2cccs2)c(C(=O)O)c1,164 to 166
7,CC(=O)Nc1cc(C(=O)O)ccc1C,277 to 279
8,COc1cc(C#N)ccc1OC(F)F,47 to 51
9,Cc1nc(NN)c2c3c(sc2n1)CCC3,182 to 184
10,CC(C)c1ccc(C(=O)O)c(C(C)C)c1,99 to 101
11,O=C1COc2cccc(F)c2N1,172 to 174
12,COC(=O)CC(=O)c1ccncc1,70 to 72
13,COC(=O)c1cc([N+](=O)[O-])c(C)cc1C,57 to 59
14,Cc1c(NC(=O)CCCl)c(=O)n(-c2ccccc2)n1C,207 to 209
15,Cc1ccc(S(=O)(=O)NCC2CCCO2)cc1C(=O)O (stereo unspecified),160 to 162
16,N#Cc1cccc(-n2cncn2)c1,150 to 152
17,O=C(CCl)c1c[nH]c2ccccc12,183 to 185
18,NC(C(=O)O)c1ccc(Cl)cc1 (stereo unspecified),219 to 221
19,COc1cc(C(=O)O)cc(OC)c1OCc1ccccc1,155 to 159
20,Fc1cccc(CCNC2=NCCS2)c1,74 to 76
21,CN(C)C(=O)COc1ccc(N)c(F)c1,106 to 108
22,Cc1[nH]n(C)c(=N)c1C,109 to 111
23,O=C(O)Cc1ccc(NC(=O)c2cccc(Br)c2)cc1,246 to 248
24,COc1ccccc1N(C)S(=O)(=O)c1ccc(C)c(C(=O)O)c1,153 to 155

row,Compound,melting point [°C]
1,CC(Cl)C(=O)NC(c1ccccc1)c1ccccc1 (stereo unspecified),130 to 139
2,CC(C)(C)c1nc2ccc(S(=O)(=O)Cl)cc2s1,122 to 124
3,COc1cc(C#N)ccc1OCCCl,95 to 97
4,CCOC(=O)c1c(N)c(C#N)cn1C,159 to 161
5,Nc1ccccc1N1CCCC1=O,98 to 102
6,Nc1cc(F)ccc1N1CC(C(F)(F)F)OC1=O (stereo unspecified),119 to 121
7,CCN(CC)Cc1ccc(C(=O)O)cc1,154 to 156
8,CCN1CCN(c2ccc(N)cc2)CC1,70 to 72
9,CC(Cl)C(=O)Nc1ccc(Cl)cc1 (stereo unspecified),100 to 102
10,CC(C)(C)OC(=O)N1CCc2ccc(N)cc2C1,93 to 95
11,NNC(=O)c1cc(Br)c[nH]1,215 to 219
12,CSc1ccc2c(c1)CCCC2=O,74 to 76
13,C1CCC(NC2=NCCCS2)CC1,112 to 114
14,N#CCCn1cc(C(=O)O)c(-c2ccc([N+](=O)[O-])cc2)n1,220 to 222
15,NC(=O)c1cc(-c2csc(N)n2)c[nH]1,235 to 237
16,O=C(Nc1cccnc1)c1cccc(Br)c1,133 to 135
17,O=C(O)Cc1cn(-c2ccccc2)nc1-c1ccc(Br)cc1,135 to 137
18,Cc1ccc(C)c(-n2ccnc2S)c1,192 to 194
19,Cn1c(S)nc2ccsc2c1=O,313 to 315
20,O=C(CC(=O)C(F)F)c1ccco1,39 to 41
21,Cc1ccc(C(=O)NCCC(=O)O)c(O)c1,159 to 161
22,O=S(=O)(Cl)C=Cc1ccc(Cl)cc1,131 to 133
23,NNC(=O)c1ccc2ccccc2n1,133 to 135
24,CC1(c2ccc(S(N)(=O)=O)cc2)NC(=O)NC1=O (stereo unspecified),249 to 251

row,Compound,melting point [°C]
1,O=C(Nc1cc(F)ccc1C(=O)O)c1ccoc1,253 to 255
2,O=S(=O)(c1ccc(S)cc1)C(F)(F)F,116 to 118
3,O=S(=O)(Cl)c1csc(-c2ccccc2)n1,86 to 88
4,N#Cc1ccc(-c2ccncc2)[nH]c1=O,339 to 341
5,CC(Cl)C(=O)Nc1ccc(F)c([N+](=O)[O-])c1 (stereo unspecified),96 to 98
6,COc1ccc(C(=O)O)cc1-c1ccnn1C,225 to 227
7,C#CCNC(=O)CCl,63 to 67
8,OCc1nnc(-c2ccccc2)n1-c1ccccc1,199 to 201
9,Cc1nn(CCO)c(C(F)(F)F)c1C(=O)O,151 to 153
10,CN(C(=O)CC#N)C1CCCCC1,88 to 90
11,CCc1nc(C)ncc1C(=O)O,158 to 160
12,CC(C)(C(O)c1ccc(Br)cc1)[N+](=O)[O-] (stereo unspecified),106 to 108
13,O=c1[nH]nc(-c2ccco2)o1,111 to 113
14,CCc1n[nH]c(C(=O)O)c1Cl,199 to 201
15,Nc1ccc(S(=O)(=O)CC2CCOC2)cc1 (stereo unspecified),118 to 120
16,O=C(Nc1ccc(O)cc1C(=O)O)OCc1ccccc1,176 to 178
17,O=C(CCl)Nc1ccc(Oc2ccc(Br)cc2)nc1,114 to 116
18,Nc1ccc(Sc2ccncc2)cc1,169 to 171
19,Cc1nnc2c(N)cc(Cl)nn12,227 to 229
20,CC(Cl)C(=O)Nc1ccc(C(F)(F)F)cc1 (stereo unspecified),130 to 132
21,COc1cc(C(=O)O)c([N+](=O)[O-])cc1OCC1CCCO1 (stereo unspecified),159 to 161
22,CCOC(=O)Cc1nnc(N)s1,156 to 158
23,COC(=O)c1c(CC(C)C)csc1N,66 to 68
